Values joined by “and” are separate entries in the source; they are usually repeats but may differ in a detail not shown here. Identical values can stand only once.
Experiments:
Format in all cases: cell-based
[1] = test system: NSCLC cells; experiment: MTT assay, growth inhibition of NSCLC cells by deguelin and deguelin derivatives (Table 2, FIG. 7); conditions: 0.01-1 μM, 3 days
[2] = test system: H1299; experiment: MTT assay, growth inhibition by deguelin or deguelin derivatives; conditions: 3 days
[3] = test system: H596; experiment: as above; conditions: 3 days
[4] = test system: H460; experiment: as above; conditions: 3 days
[5] = test system: H358; experiment: as above; conditions: 3 days
[6] = test system: A549; experiment: as above; conditions: 3 days
[7] = test system: H322; experiment: as above; conditions: 3 days

## bromorot-2′-enoic acid
[1]
  inhibiting cell growth in NSCLC cells, ranking among the derivatives: most effective

## COc1cc2c(cc1OC)[C@]1(O)C(=O)c3ccc4c(c3O[C@@H]1CO2)C=CC(C)(C)O4 [tephrosin]
[2]; H1299, 0.01 μM
  MTT assay reading, Average: 0.4143
  MTT assay reading, individual replicate: 0.38 and 0.248 and 0.428 and 0.399 and 0.471 and 0.527 and 0.447
[2]; H1299, 0.1 μM
  MTT assay reading, Average: 0.7746
  MTT assay reading, individual replicate: 0.795 and 0.806 and 0.783 and 0.784 and 0.956 and 0.491 and 0.807
[2]; H1299, 0.5 μM
  MTT assay reading, Average: 0.1507
  MTT assay reading, individual replicate: 0.135 and 0.147 and 0.166 and 0.204 and 0.179 and 0.097 and 0.127
[2]; H1299, 1 μM
  MTT assay reading, Average: 0.2739
  MTT assay reading, individual replicate: 0.261 and 0.279 and 0.255 and 0.26 and 0.36 and 0.183 and 0.319
[3]; H596, 0.01 μM
  MTT assay reading, Average: 0.1156
  MTT assay reading, individual replicate: 0.062 and 0.127 and 0.078 and 0.138 (2×) and 0.103 and 0.163
[3]; H596, 0.1 μM
  MTT assay reading, Average: 0.0826
  MTT assay reading, individual replicate: 0.082 and 0.062 and 0.066 and 0.095 and 0.09 and 0.058 and 0.125
[3]; H596, 0.5 μM
  MTT assay reading, Average: 0.1631
  MTT assay reading, individual replicate: 0.137 and 0.159 and 0.151 and 0.111 and 0.158 and 0.076 and 0.35
[3]; H596, 1 μM
  MTT assay reading, Average: 0.1983
  MTT assay reading, individual replicate: 0.287 and 0.257 and 0.172 and 0.151 and 0.215 and 0.131 and 0.175
[4]; H460, 0.01 μM
  % control: 0.05%
  MTT assay reading, Average: 0.0956
  MTT assay reading, individual replicate: 0.072 and 0.051 and 0.097 and 0.1 and 0.105 and 0.132 and 0.112
[4]; H460, 0.1 μM
  % control: 0.05%
  MTT assay reading, Average: 0.0816
  MTT assay reading, individual replicate: 0.072 and 0.067 and 0.086 (2×) and 0.112 and 0.056 and 0.092
[4]; H460, 0.5 μM
  % control: 0.08%
  MTT assay reading, Average: 0.141
  MTT assay reading, individual replicate: 0.088 and 0.113 (2×) and 0.159 and 0.16 and 0.19 and 0.164
[4]; H460, 1 μM
  % control: 0.10%
  MTT assay reading, Average: 0.1819
  MTT assay reading, individual replicate: 0.162 and 0.184 and 0.154 and 0.272 and 0.183 and 0.133 and 0.185
[5]; H358, 0.01 μM
  MTT assay reading, Average: 0.6206
  MTT assay reading, individual replicate: 0.508 and 0.601 and 0.658 and 0.674 and 0.608 and 0.59 and 0.705
[5]; H358, 0.1 μM
  MTT assay reading, Average: 0.5327
  MTT assay reading, individual replicate: 0.522 and 0.496 (2×) and 0.558 and 0.516 and 0.579 and 0.562
[5]; H358, 0.5 μM
  MTT assay reading, Average: 0.1047
  MTT assay reading, individual replicate: 0.054 and 0.048 and 0.1 and 0.105 and 0.117 and 0.147 and 0.162
[5]; H358, 1 μM
  MTT assay reading, Average: 0.2634
  MTT assay reading, individual replicate: 0.245 and 0.233 and 0.332 and 0.139 and 0.234 and 0.293 and 0.368
[6]; A549, 0.01 μM
  % control: 0.16%
  MTT assay reading, Average: 0.2403
  MTT assay reading, individual replicate: 0.274 and 0.196 and 0.223 and 0.284 and 0.229 and 0.252 and 0.224
[6]; A549, 0.1 μM
  % control: 0.17%
  MTT assay reading, Average: 0.248
  MTT assay reading, individual replicate: 0.161 and 0.279 and 0.299 and 0.218 and 0.262 and 0.236 and 0.281
[6]; A549, 0.5 μM
  % control: 0.17%
  MTT assay reading, Average: 0.255
  MTT assay reading, individual replicate: 0.299 and 0.243 and 0.26 and 0.217 (2×) and 0.305 and 0.244
[6]; A549, 1 μM
  % control: 0.23%
  MTT assay reading, Average: 0.3313
  MTT assay reading, individual replicate: 0.434 and 0.15 and 0.366 and 0.295 and 0.386 and 0.341 and 0.347
[7]; H322, 0.01 μM
  MTT assay reading, Average: 0.6627
  MTT assay reading, individual replicate: 0.527 and 0.596 and 0.713 and 0.655 and 0.68 and 0.721 and 0.747
[7]; H322, 0.1 μM
  MTT assay reading, Average: 0.7197
  MTT assay reading, individual replicate: 0.685 and 0.659 and 0.726 and 0.643 and 0.732 and 0.795 and 0.798
[7]; H322, 0.5 μM
  MTT assay reading, Average: 0.1343
  MTT assay reading, individual replicate: 0.113 and 0.109 (2×) and 0.12 and 0.117 and 0.162 and 0.21
[7]; H322, 1 μM
  MTT assay reading, Average: 0.2089
  MTT assay reading, individual replicate: 0.223 and 0.216 (3×) and 0.182 and 0.168 and 0.241
[1]
  inhibiting cell growth in NSCLC cells, ranking among the derivatives: most effective

## C=C(C)[C@H]1Cc2c(ccc3c(=O)c4c(oc23)COc2cc(OC)c(OC)cc2-4)O1 [6a,2a-dehydrorotenone]
[2]; H1299, 0.01 μM
  % control: 0.99%
  MTT assay reading, Average: 1.5514
  MTT assay reading, individual replicate: 1.562 and 1.561 and 1.559 and 1.63 and 1.515 and 1.517 and 1.516
[2]; H1299, 0.1 μM
  % control: 0.89%
  MTT assay reading, Average: 1.3907
  MTT assay reading, individual replicate: 1.39 and 1.308 and 1.385 and 1.539 and 1.281 and 1.351 and 1.481
[2]; H1299, 0.5 μM
  % control: 0.95%
  MTT assay reading, Average: 1.4937
  MTT assay reading, individual replicate: 1.544 and 1.561 and 1.338 and 1.502 and 1.595 and 1.413 and 1.503
[2]; H1299, 1 μM
  % control: 0.89%
  MTT assay reading, Average: 1.3961
  MTT assay reading, individual replicate: 1.452 and 1.321 and 1.233 and 1.57 and 1.421 and 1.33 and 1.446
[3]; H596, 0.01 μM
  MTT assay reading, Average: 1.6089
  MTT assay reading, individual replicate: 1.581 and 1.597 and 1.651 and 1.605 and 1.631 and 1.617 and 1.58
[3]; H596, 0.1 μM
  MTT assay reading, Average: 1.399
  MTT assay reading, individual replicate: 1.347 and 1.381 and 1.333 and 1.513 and 1.417 and 1.34 and 1.462
[3]; H596, 0.5 μM
  MTT assay reading, Average: 1.4016
  MTT assay reading, individual replicate: 1.343 and 1.467 and 1.312 and 1.463 and 1.351 and 1.399 and 1.476
[3]; H596, 1 μM
  MTT assay reading, Average: 1.3214
  MTT assay reading, individual replicate: 1.234 and 1.257 and 1.341 and 1.494 and 1.326 and 1.319 and 1.279
[4]; H460, 0.01 μM
  % control: 0.96%
  MTT assay reading, Average: 1.6774
  MTT assay reading, individual replicate: 1.625 and 1.563 and 1.731 and 1.89 and 1.443 and 1.675 and 1.815
[4]; H460, 0.1 μM
  % control: 0.78%
  MTT assay reading, Average: 1.3666
  MTT assay reading, individual replicate: 1.314 (2×) and 1.333 and 1.204 and 1.501 and 1.379 and 1.521
[4]; H460, 0.5 μM
  % control: 0.85%
  MTT assay reading, Average: 1.49
  MTT assay reading, individual replicate: 1.31 and 1.421 and 1.538 and 1.504 and 1.55 and 1.534 and 1.573
[4]; H460, 1 μM
  % control: 0.79%
  MTT assay reading, Average: 1.382
  MTT assay reading, individual replicate: 1.253 and 1.353 and 1.351 and 1.347 and 1.429 and 1.319 and 1.622
[5]; H358, 0.01 μM
  MTT assay reading, Average: 0.8861
  MTT assay reading, individual replicate: 0.784 and 0.734 and 0.786 and 0.686 and 0.95 and 1.192 and 1.071
[5]; H358, 0.1 μM
  MTT assay reading, Average: 0.7511
  MTT assay reading, individual replicate: 0.602 and 0.652 and 0.603 and 0.672 and 0.792 and 0.778 and 1.159
[5]; H358, 0.5 μM
  MTT assay reading, Average: 0.6756
  MTT assay reading, individual replicate: 0.533 and 0.604 and 0.6 and 0.736 and 0.633 and 0.734 and 0.889
[5]; H358, 1 μM
  MTT assay reading, Average: 0.684
  MTT assay reading, individual replicate: 0.686 and 0.624 and 0.639 and 0.64 and 0.667 and 0.752 and 0.78
[6]; A549, 0.01 μM
  MTT assay reading, Average: 1.7067
  MTT assay reading, individual replicate: 1.69 (2×) and 1.705 and 1.541 and 1.829 and 1.786 and 1.706
[6]; A549, 0.1 μM
  MTT assay reading, Average: 1.4161
  MTT assay reading, individual replicate: 0.691 and 1.805 and 1.719 and 1.454 and 1.375 (2×) and 1.494
[6]; A549, 0.5 μM
  MTT assay reading, Average: 1.4871
  MTT assay reading, individual replicate: 1.531 and 1.925 and 1.594 and 1.387 and 1.359 and 1.356 and 1.258
[6]; A549, 1 μM
  MTT assay reading, Average: 1.4281
  MTT assay reading, individual replicate: 1.544 and 1.458 and 1.375 and 1.486 and 1.428 and 1.464 and 1.242
[7]; H322, 0.01 μM
  MTT assay reading, Average: 0.969
  MTT assay reading, individual replicate: 0.795 and 0.799 and 0.893 and 0.989 and 1.014 and 1.101 and 1.192
[7]; H322, 0.1 μM
  MTT assay reading, Average: 0.8656
  MTT assay reading, individual replicate: 0.865 and 0.771 and 0.799 and 0.872 and 0.866 and 0.909 and 0.977
[7]; H322, 0.5 μM
  MTT assay reading, Average: 0.828
  MTT assay reading, individual replicate: 0.736 and 0.809 and 0.833 and 0.746 and 0.89 and 0.958 and 0.824
[7]; H322, 1 μM
  MTT assay reading, Average: 0.7213
  MTT assay reading, individual replicate: 0.677 and 0.658 and 0.692 and 0.681 and 0.68 and 0.859 and 0.802

Source: patent US20060128792A1, “Deguelin as a chemopreventive agent for lung cancer” (priority 2002, published 2006)
